# Source: ChEMBL document CHEMBL1201862, “PubChem BioAssay data set” (2004)
#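 Growth conditions: 96-well plates. Treatment: test compound, 48 hours, 5 concentrations. Analysis: linear interpolation between bracketing concentrations; unreached endpoints set to highest concentration. At the GI50, growth is halved.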 Active and inactive are the calls of the source. Rule as the data show it: active = GI50 up to about 1.1 µM and inactive = higher.
# Experiments:
# Assay in all cases: inhibition of tumour cell growth, NCI panel, 48 h
# [1] = test system: BT-549
# [2] = test system: Hs-578T
# [3] = test system: T47D
# [4] = test system: MDA-MB-231
# [5] = test system: SNB-78
# [6] = test system: XF498
# [7] = test system: KM-20L2
# [8] = test system: HOP-18
Structure (SMILES),GI50 [1],GI50 [2],GI50 [3],GI50 [4],GI50 [5],GI50 [6],GI50 [7],GI50 [8]
O=C(O)CCC1(c2ccccc2)NC(=O)NC1=O (configuration not stated),> 100 µM (inactive),> 100 µM (inactive),> 100 µM (inactive),> 100 µM (inactive),–,–,–,–
O=[N+]([O-])c1cccc2nccc(NCCCO)c12,8.93 µM (inactive),13.1 µM (inactive),26.4 µM (inactive),23 µM (inactive),–,–,–,–
CCN(CC)CCCNc1nncc2c(C)c3[nH]c4ccccc4c3cc12,1.34 µM (inactive),0.865 µM (active),0.705 µM (active),0.374 µM (active),–,–,–,–
[O-]c1on[n+]2c1c(Nc1ccc(Cl)cc1)nc1ccccc12,–,–,–,–,> 100 µM (inactive),> 100 µM (inactive),> 100 µM (inactive),–
CCOC(=O)C1S/C(=N\c2ccc(C)c(C)c2)N=C1C (configuration not stated),–,–,–,–,–,> 100 µM (inactive),> 100 µM (inactive),> 100 µM (inactive)
CCOC(=O)C1=C(c2ccccc2)C12N(Cc1ccccc1)C(=O)C2(c1ccccc1)c1ccccc1 (configuration not stated),24.8 µM (inactive),36.9 µM (inactive),43.2 µM (inactive),29.9 µM (inactive),–,–,–,–
COc1ccc2cc(C(C)C(=O)N3C(=O)OCC3(C)C)ccc2c1 (configuration not stated),> 100 µM (inactive),–,> 100 µM (inactive),> 100 µM (inactive),–,–,–,–
[O-][Cl+3]([O-])([O-])O.c1ccc(C2=NN2c2ccccc2)cc1,> 100 µM (inactive),–,7.13 µM (inactive),> 100 µM (inactive),–,–,–,–
CCOC(=O)c1csc(-c2nc(CCNC(=O)c3ccccc3)sc2Cl)n1,32.7 µM (inactive),> 100 µM (inactive),–,–,–,–,–,–
CCOC(=O)c1c(N2CCOCC2)[nH]c(=O)c(C(c2c(Cl)cccc2Cl)c2c(O)c(C(=O)OCC)c(N3CCOCC3)[nH]c2=O)c1O,7.76 µM (inactive),4.86 µM (inactive),4.01 µM (inactive),12.3 µM (inactive),–,–,–,–
CC(C)(C)OC(=O)CCC1NC(=O)[C@@H]2Cc3c([nH]c4ccccc34)C(c3ccccc3)N2C1=O (some centres not stated),28.6 µM (inactive),16.7 µM (inactive),27.8 µM (inactive),19.7 µM (inactive),–,–,–,–
COC(=N)c1ncn(Cc2ccccc2)c1N,–,> 100 µM (inactive),> 100 µM (inactive),> 100 µM (inactive),–,–,–,–
COc1ccc(S(=O)(=O)c2ccccc2[N+](=O)[O-])cc1,–,–,–,–,–,–,> 100 µM (inactive),> 100 µM (inactive)
N#C/C(C(=O)Nc1ccc(Cl)cc1)=C(/N)N1CCOCC1,> 100 µM (inactive),–,> 100 µM (inactive),–,–,–,–,–
COc1ccc2c(c1)C(OC)C1c3c(cc4c(c3-2)OCO4)CCN1C (configuration not stated),2.28 µM (inactive),1.96 µM (inactive),6.56 µM (inactive),2.44 µM (inactive),–,–,–,–
COc1ccc(N2C(=O)C3ON(C(C(N)=O)c4ccccc4)C(c4cc5ccccc5c5ccccc45)C3C2=O)cc1 (configuration not stated),24.7 µM (inactive),> 50 µM (inactive),28.6 µM (inactive),> 50 µM (inactive),–,–,–,–
CC(C)(C)OC(=O)NC(Cc1ccc(OCc2ccccc2)cn1)C(=O)NCc1ccccc1 (configuration not stated),20.7 µM (inactive),29 µM (inactive),16.7 µM (inactive),24.6 µM (inactive),–,–,–,–
Oc1ccc(O)c(CNc2ccccc2)c1,7.93 µM (inactive),25.5 µM (inactive),8.41 µM (inactive),17.7 µM (inactive),–,–,–,–
CC(=O)OCC1OC(N2C(=S)N[C@H]([C@@H](O)[C@H](O)[C@H](O)CO)[C@H]2O)C(OC(C)=O)C(OC(C)=O)C1OC(C)=O (some centres not stated),> 100 µM (inactive),> 100 µM (inactive),–,> 100 µM (inactive),–,–,–,–
COC1(OC)CCC2(C)OC(c3ccccc3)C1O2 (configuration not stated),–,–,–,–,–,> 100 µM (inactive),> 100 µM (inactive),–
COc1ccc(-c2nc3ccccc3c(=S)n2OC(C)=O)cc1,8.57 µM (inactive),12.2 µM (inactive),3.5 µM (inactive),> 25 µM (inactive),–,–,–,–
Nc1cc2c(c3ccccc13)C(CCl)CN2C(=O)c1cc2cc(NC(=O)c3cc4ccccc4o3)ccc2[nH]1 (configuration not stated),0.00126 µM (active),0.0169 µM (active),0.00158 µM (active),0.0221 µM (active),–,–,–,–
O=C1C=CC[C@H]2O[C@@H](COC(=O)Cc3ccccc3)C[C@H]2O1,–,26.2 µM (inactive),58.1 µM (inactive),63.7 µM (inactive),–,–,–,–
c1c(N2CCOCC2)s[s+]c1N1CCOCC1,–,–,–,–,> 100 µM (inactive),–,> 100 µM (inactive),> 100 µM (inactive)
CCOC(=O)/C(C#N)=C(N)/C(=N\Nc1cccc(C(F)(F)F)c1)C(=O)OCC,–,–,–,–,> 100 µM (inactive),–,> 100 µM (inactive),> 100 µM (inactive)
CC(=O)c1sc2n(C)c(=O)c3ccccc3[n+]2c1C,> 100 µM (inactive),> 100 µM (inactive),> 100 µM (inactive),> 100 µM (inactive),–,–,–,–
C=C(Cl)C(Cl)(CBr)CCC(Cl)C(C)C (configuration not stated),14.3 µM (inactive),1.16 µM (inactive),0.156 µM (active),3.95 µM (inactive),–,–,–,–
CCC1(C)N=c2c(ncn2N=C(C)C)=C(C(N)=O)N1 (configuration not stated),–,> 100 µM (inactive),> 100 µM (inactive),> 100 µM (inactive),–,–,–,–
COC(=O)C1CC2(c3ccccc3)C(=O)c3ccccc3N2O1 (configuration not stated),–,–,–,–,> 100 µM (inactive),–,> 100 µM (inactive),> 100 µM (inactive)
